Data on 23 compounds can be found in patent EP0443568B1, “Fused thiophene derivatives, their production and use” (Takeda Chemical Industries, Ltd., priority 1990, dated 1991).

One experiment addresses T1, A-II-receptor (Bos taurus, UniProt P25104).
T1 construct: An A-II-receptor was prepared from the membrane fraction of bovine adrenal cortex; from tissue; host or cells: bovine adrenal cortex membrane fraction
T1 sequence (P25104 1-359): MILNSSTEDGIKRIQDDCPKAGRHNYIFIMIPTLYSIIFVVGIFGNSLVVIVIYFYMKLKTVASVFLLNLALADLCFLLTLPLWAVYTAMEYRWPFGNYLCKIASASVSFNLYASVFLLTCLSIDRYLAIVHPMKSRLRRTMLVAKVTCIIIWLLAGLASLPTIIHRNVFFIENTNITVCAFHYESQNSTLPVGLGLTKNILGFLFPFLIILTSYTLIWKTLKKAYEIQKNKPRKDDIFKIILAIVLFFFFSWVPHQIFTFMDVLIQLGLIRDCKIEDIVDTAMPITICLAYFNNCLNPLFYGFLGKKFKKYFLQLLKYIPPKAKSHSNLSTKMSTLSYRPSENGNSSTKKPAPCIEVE
Briefly: Inhibition of binding of angiotensin-II to angiotensin receptor (radio receptor assay, 125I-A-II). As to conditions: membrane fraction of bovine adrenal cortex, room temperature, one hour, read-out: Radio Receptor Assay IC₅₀. The procedure:
An experiment of inhibition on the binding of angiotensin-II (A-II) to A-II-receptor was conducted by modifying the method of Douglas et al. [Endocrinology, 102, 685-696 (1978)]. An A-II-receptor was prepared from the membrane fraction of bovine adrenal cortex.
The compound of the present invention (10⁻⁹M to 3 × 10⁻⁵M ) and ¹²⁵I-A-II (1.85 kBq/50 µ l) were added to the receptor membrane fraction, and the mixture was incubated at room temperature for one hour. The receptor-bound and free ¹²⁵I-A-II were separated through a filter (Whatman GF/B filter), and the radioactivity of ¹²⁵I-A-II bound to the receptor was measured.

The subject of experiment [1] is A-II-induced pressor action. Briefly: Inhibitory effect on pressor action of A-II in rats after oral administration. The experiment is classed as in vivo, Jcl : SD rats. As to conditions: Rattus norvegicus, p.o., A-II 100 ng/kg intravenous, male SD rats, read-out: Pressor Response (30 mg/Kg, p.o.). How it is done: Jcl : SD rats (9 week old, male) were used. On the day previous to the experiment, these animals were applied with cannulation into the femoral artery and vein under anesthesia with pentobarbital Na. The animals were fasted but allowed to access freely to drinking water until the experiment was started. Just on the day of conducting the experiment, the artery cannula was connected with a blood-pressure transducer, and the average blood pressure was recorded by means of polygraph. Before administration of the drug, the pressor action due to intravenous administration of A-II (100 ng/kg) as the control was measured. The drugs were orally administered, and then, at each point of the measurement, A-II was administered intravenously, and the pressor action was similarly measured. By comparing the pressor action before and after administration of the drug, the percent inhibition by the drug on A-II-induced pressor action was evaluated.

Where only a bound is given, the exact number is not on record here.

For the compound `CCc1cc2c(=O)c(C(=O)NC(C)c3ccccc3)cn(Cc3ccc(-c4ccccc4-c4nn[nH]n4)cc3)c2s1` (stereo not shown) [compound 25], the IC50 on A-II-receptor came out at 780 nM. In addition, the inhibition in vivo at 30 mg/kg in experiment [1] is at least 70%.

On to `CCc1cc2c(=O)c(C(=O)NCc3ccccc3OC)cn(Cc3ccc(-c4ccccc4-c4nn[nH]n4)cc3)c2s1` [compound 21], for which, on A-II-receptor, the IC50 is 250 nM. The inhibition in vivo at 30 mg/kg in experiment [1] is at least 70%.

As for `CCOC(=O)c1cn(Cc2ccc(-c3ccccc3-c3nn[nH]n3)cc2)c2sc(C)cc2c1=O` [compound 5], the IC50 on A-II-receptor came to 50 nM.

Regarding `CCc1cc2c(=O)c(C(=O)NCc3ccccc3C)cn(Cc3ccc(-c4ccccc4-c4nn[nH]n4)cc3)c2s1` [compound 29], the IC50 on A-II-receptor is 120 nM. In experiment [1], the inhibition in vivo at 30 mg/kg was at least 70%.

For `CCc1cc2c(=O)c(C(=O)NCc3ccccn3)cn(Cc3ccc(-c4ccccc4-c4nn[nH]n4)cc3)c2s1` [compound 30], at A-II-receptor, the IC50 was determined as 20 nM. For the same compound, the inhibition in vivo at 30 mg/kg in experiment [1] was at least 70%.

As to `CCOC(=O)c1cn(Cc2ccc(-c3ccccc3-c3nn[nH]n3)cc2)c2sc(C#N)cc2c1=O` [compound 20], the IC50 on A-II-receptor came out at 670 nM.

Turning to `CCc1cc2c(=O)c(C(=O)OCCOC)cn(Cc3ccc(-c4ccccc4-c4nn[nH]n4)cc3)c2s1` [compound 8], the IC50 on A-II-receptor turned out to be 10 nM.

Regarding `CCc1cc2c(=O)c(C(=O)NCc3ccccc3F)cn(Cc3ccc(-c4ccccc4-c4nn[nH]n4)cc3)c2s1` [compound 26], the IC50 on A-II-receptor is 210 nM. The inhibition in vivo at 30 mg/kg in experiment [1] was at least 70%.

On to `CCCc1cc2c(=O)c(C(=O)OCC)cn(Cc3ccc(-c4ccccc4-c4nn[nH]n4)cc3)c2s1` [compound 6], for which, at A-II-receptor, the IC50 was 90 nM.

Regarding `CCc1cc2c(=O)c(C(=O)NCc3cccc(F)c3)cn(Cc3ccc(-c4ccccc4-c4nn[nH]n4)cc3)c2s1` [compound 24], the IC50 at A-II-receptor worked out at 190 nM. The inhibition in vivo at 30 mg/kg in experiment [1] was at least 70%.

On to `CCOC(=O)c1cn(Cc2ccc(-c3ccccc3-c3nn[nH]n3)cc2)c2sc(CC)cc2c1=O` [compound 2], for which the IC50 on A-II-receptor was 50 nM.

In the case of `CCOC(=O)c1cn(Cc2ccc(-c3ccccc3C(=O)O)cc2)c2sc(CC)cc2c1=O` [compound 11], the IC50 at A-II-receptor worked out at 210 nM.

On to `CCc1cc2c(=O)c(C(N)=O)cn(Cc3ccc(-c4ccccc4-c4nn[nH]n4)cc3)c2s1` [compound 13], for which the IC50 at A-II-receptor is 20 nM.

On to `CCOC(=O)c1cn(Cc2ccc(-c3ccccc3-c3nn[nH]n3)cc2)c2sccc2c1=O` [compound 4], for which the IC50 on A-II-receptor was found to be 200 nM.

Regarding `CCc1cc2c(=O)c(C(=O)NCc3ccc(F)cc3)cn(Cc3ccc(-c4ccccc4-c4nn[nH]n4)cc3)c2s1` [compound 23], the IC50 on A-II-receptor amounted to 170 nM. In addition, in experiment [1], the inhibition in vivo at 30 mg/kg is at least 70%.

Take `CCc1cc2c(=O)c(C(=O)NCCO)cn(Cc3ccc(-c4ccccc4-c4nn[nH]n4)cc3)c2s1` [compound 15]: the IC50 at A-II-receptor came to 50 nM.

For the compound `CCOC(=O)c1cn(Cc2ccc(-c3ccccc3-c3nn[nH]n3)cc2)c2sc(Br)cc2c1=O` [compound 3], at A-II-receptor, the IC50 is 70 nM.

Turning to `CCc1cc2c(=O)c(C(=O)OCC(C)C)cn(Cc3ccc(-c4ccccc4-c4nn[nH]n4)cc3)c2s1` [compound 7], the IC50 on A-II-receptor is 170 nM.

Turning to `CCc1cc2c(=O)c(C(=O)O)cn(Cc3ccc(-c4ccccc4-c4nn[nH]n4)cc3)c2s1` [compound 10], the IC50 on A-II-receptor was 40 nM. The inhibition in vivo at 30 mg/kg in experiment [1] lay in the range of 50 to 70%.

Turning to `CCc1cc2c(=O)c(C(=O)NCc3ccccc3)cn(Cc3ccc(-c4ccccc4-c4nn[nH]n4)cc3)c2s1` [compound 12], on A-II-receptor, the IC50 was 60 nM. The inhibition in vivo at 30 mg/kg in experiment [1] is at least 70%.

Regarding `CCc1cc2c(=O)c(C(=O)Nc3ccccc3)cn(Cc3ccc(-c4ccccc4-c4nn[nH]n4)cc3)c2s1` [compound 16], at A-II-receptor, the IC50 turned out to be 120 nM. In addition, the inhibition in vivo at 30 mg/kg in experiment [1] was at least 70%.

On to `CCc1cc2c(=O)c(C(=O)NCc3ccc(C)cc3)cn(Cc3ccc(-c4ccccc4-c4nn[nH]n4)cc3)c2s1` [compound 28], for which the IC50 on A-II-receptor worked out at 220 nM. In addition, the inhibition in vivo at 30 mg/kg in experiment [1] is 50 to 70%.

`CCc1cc2c(=O)c(C(=O)NCC(C)C)cn(Cc3ccc(-c4ccccc4-c4nn[nH]n4)cc3)c2s1` [compound 14]: the IC50 at A-II-receptor was 130 nM.
